Reference: ChEMBL document CHEMBL1138955, “Novel gamma-secretase inhibitors discovered by library screening of in-house synthetic natural product intermediates” (Bioorg Med Chem Lett, 2006)
pIC50: −log10 of the molar value.

Tests used:
Gamma-secretase [1] = test: Inhibition of beta amyloid protein 42; format: protein-complex assay, Homo sapiens
Gamma-secretase [2] = test: Inhibition of beta amyloid protein 40; format: protein-complex assay, Homo sapiens
[3] = biological target: Gamma-secretase (Homo sapiens) (UniProt Q96BI3+Q9NZ42+Q8WW43+P49768+Q92542+P49810); test: Inhibition of beta amyloid protein 40 at 100 uM; format: protein-complex assay

SMILES | pIC50 (Gamma-secretase [1]) | pIC50 (Gamma-secretase [2]) | inhibition [3]
O=C1C=CCN(S(=O)(=O)c2ccccc2)C1Cc1ccccc1 (stereo not drawn) | 4.91 | 5.23 | 
COC(=O)N1CC=CC(=O)C1Cc1ccccc1 (stereo not drawn) | 5.01 | 5.14 | 
O=C1CCCN(C(=O)OCc2ccccc2)C1Cc1ccccc1 (stereo not drawn) | < 4.00 |  | 21%
O=C1C=CC(O)N(C(=O)OCc2ccccc2)C1Cc1ccccc1 (stereo not drawn) | 6.15 | 6.30 | 
CO[C@@H]1C(=O)CCC[C@H]1O | < 4.00 | < 4.00 | 
O=C1C=CCN(C(=O)OCc2ccccc2)C1Cc1ccccc1 (stereo not drawn) | 5.13 | 5.34 | 
CO[C@@H]1CCCC(=O)[C@H]1O | < 4.00 | < 4.00 | 
O=C1C=CCN(C(=O)c2ccccc2)C1Cc1ccccc1 (stereo not drawn) | 5.66 | 6.00 | 
O=C(OCc1ccccc1)N1CCCC(O)C1Cc1ccccc1 (stereo not drawn) | < 4.00 | < 4.00 | 

Further lines, results first:

pIC50 (Gamma-secretase [1]) | pIC50 (Gamma-secretase [2]) | inhibition [3] | SMILES
4.59 | 4.47 |  | CO[C@@H]1C(=O)C=CC[C@H]1OCc1ccccc1
4.86 | 5.31 |  | CO[C@@H]1CCCC(=O)[C@H]1OCc1ccccc1
< 4.00 | < 4.00 |  | CO[C@@H]1CC(O)CC(=O)[C@H]1OCc1ccccc1 (stereo partly drawn)
< 4.00 | < 4.00 |  | CO[C@@H]1C(=O)CCC[C@H]1OCc1ccccc1
< 4.00 | < 4.00 |  | COC(=O)N1CCCC(O)C1Cc1ccccc1 (stereo not drawn)
< 4.00 | < 4.00 |  | COC(=O)N1CCCC(=O)C1Cc1ccccc1 (stereo not drawn)
4.99 | 5.16 |  | CO[C@@H]1CC=CC(=O)[C@H]1OCc1ccccc1
< 4.00 | < 4.00 |  | CO[C@@H]1C(=O)CC(O)C[C@H]1OCc1ccccc1 (stereo partly drawn)
5.96 | 5.80 |  | O=C1C=CC[C@@H](OCc2ccccc2)[C@@H]1OCc1ccccc1
< 4.00 | < 4.00 |  | O=C1CCC[C@@H](OCc2ccccc2)[C@@H]1OCc1ccccc1
